Assay results from patent publication US11573241B2, “Total cellular iron as a marker of cancer stem cells and uses thereof” (Institut National de la Sante et de la Recherche Medicale …, priority 2016, dated 2023).
Where a SMILES comes first, the peptide text is derived from it. The star is where a group is joined. Cbz = O=C(OCc1ccccc1)*; CH2F = FC*

Tests used:
HMLER CD24^low cells [1] = experiment: Immunoblotting of iron homeostasis regulatory proteins; assay type: cell-based, human; details: 24 h
[2] = test system: patient-derived xenografts (PDX 1 and 2); assay type: in vivo, NOD/SCID mice; details: intra-peritoneal, 4 weeks
Description: Patient derived xenografts (PDXs). PDXs were established as previously described in Charafe-Jauffret et al., Cancer Res. 73, 7290-7300 (2013) from tissue samples collected prospectively at the Institut Paoli-Calmettes (IPC). Samples of human origin and associated data were obtained from the IPC/CRCM Tumor Bank that operates under authorization #AC-2007-33 granted by the French Ministry of Higher Education and Research. Before scientific use of samples and data, patients were appropriately informed and asked to consent in writing, in compliance with French and European regulations. The project was approved by the IPC Institutional Review Board. Cells from 2 different patient-derived xenografts (PDX 1 and 2) were transplanted orthotopically into fat pads of 4-week-old female non-obese diabetic/severe combined immunodeficient (NOD/SCID) mice (NOD.CB17-Prkdcscid/J, Charles River France) after mechanical treatment and enzymatic digestion using collagenase/hyaluronidase (StemCell Technologies) to generate single-cell suspension suitable for implantation in vivo. PDXs were primarily established as previously described in Caraft-Jauffret et al., and evaluated for ALDEFLUOR-positive CSCs. We injected single cancer cells into fat pads of NOD/SCID mice and monitored tumor growth. When tumor size reached approximately 150 mm^3, Sal and AM5 treatments were performed as indicated above for FIGS. 14 and 15. Tumor growth was compared with that of docetaxel and placebo-treated controls. After 4 weeks of treatment, the animals were sacrificed and the proportion of ALDEFLUOR-positive CSCs was measured in each residual tumor. All animal studies were approved by the French Ministry of Higher Education and Research (authorization number D130554) and ethical committee (number 14), of Aix-Marseille Université. No randomization was used and experimenters were blinded to drug treatments and tissue analyses.
Aldefluor assay. The analysis was processed on single-cell suspension from the PDXs obtained as described above. The ALDEFLUOR Kit (Stemcell™ Technologies) was used to isolate the population with high aldehyde dehydrogenase enzymatic activity using an LSR2 cytometer (Becton Dickinson Biosciences), as previously described in Charafe-Jauffret et al. To eliminate cells of mouse origin from the PDXs, we used staining with an anti-H2Kd antibody (BD Biosciences, 1:200, 20 min on ice) followed by staining with a secondary antibody labeled with phycoerythrin (PE; Jackson Laboratories, 1:250, 20 min on ice).

[3] = test system: cells from treated PDX 1 and 2; experiment: Limiting dilution assay, tumor-seeding capacity (ELDA); assay type: in vivo, NOD/SCID mice; details: re-implantation into secondary mice
Description: Limiting dilution assay. Cells from 4-week treated mice were re-implanted into one to four secondary NOD/SCID mice with injection of 10, 50, 500 or 5000 cells for each treated tumor to functionally evaluate the proportion of residual CSCs in each treatment group (Unt., Doc, Sal, AM5) for the PDX 1 and 2. Each mouse that developed a tumor reaching a size of 10 mm was considered as a tumor-bearing mouse.
Estimation of number of CSCs in vivo. The number of mammary gland outgrowths obtained in a fat pad after cell re-implantation is currently used to evaluate the number of stem cells able to repopulate this fat pad. It is based on self-renewal and differentiation abilities, two hallmarks of stem cells. In the same manner, estimation of the number of CSCs can be obtained from tumor outgrowth data collected after limited dilution re-implantation of each group of treatments, based on tumor-initiating capacities of CSCs. For calculation, an online tool is available using Extreme Limiting Dilution Analysis (ELDA) (http://bioinf.wehi.edu.au/software/elda/) for limiting dilution analysis based on the Poisson single-hit model according to the number of outgrowths observed and the number of pat pad re-implanted for each cell dilution.

HMLER CD24^low cells [4] = experiment: Annexin V/PI assay; assay type: cell-based, human; details: 48 h
Protocol: (§1) Annexin V/PI assay. Cells were treated as indicated. After treatment, cell death was quantified using Annexin V-FITC/Propidium Iodide (PI) assay according to the manufacturer's protocol (FITC Annexin V Apoptosis Detection Kit II, 556570, BD Pharmingen™) and analyzed by a LSRFortessa™ flow cytometer (BD Bioscience, San Jose, Calif.). The data were processed using Cell Quest software (BD Biosciences).

iCSCL-10A2 cells = experiment: Annexin V/PI assay; assay type: cell-based; details: Sal or AM5 0.5 μM, 72 h
Protocol: as §1

HMLER cells = experiment: Flow cytometry of CD44 and CD24 expression after TGF beta; assay type: cell-based, human
Protocol: FIG. 11. […] Briefly, HMLER cells were treated as indicated with TGF beta in the presence or absence of transferrin. CD44 and CD24 expression were assessed by flow cytometry. CD44^+ indicates the percent of CD44^high/CD24^Low/− population gated.

MCF-7 cells [5] = experiment: Immunoblotting of EMT markers and ferritin after OSM; assay type: cell-based, human; details: OSM 100 ng/ml
Protocol: FIG. 7. Knock down of ferritin expression interferes with the OSM-mediated induction of EMT in MCF-7 cells. left, Immunoblotting showing levels of EMT markers in MCF-7 cells treated or not with 100 ng/ml of OSM for 72 h. right Immunoblotting showing levels of ferritin and fibronectin proteins in MCF-7 cells transfected with siRNA control (scramble) or siRNA targeting specifically ferritin mRNA (FTH1) during 48 h and then the cells were incubated with OSM (100 ng/ml) for 48 h. Beta-tubulin is used as loading control. MCF-7 were transfected.
Immunoblotting. Cells were treated as indicated, then washed twice with PBS and lysed with 2× Laemmli buffer. Cell extracts were heated at 95° C. for 5 min, sheared through a 26-gauge needle and quantified with a Nanodrop 2000 (Thermo Scientific). Protein lysates (˜100 μg) were resolved by SDS-PAGE electrophoresis and transferred onto PVDF membranes (Amersham). Membranes were blocked with 5% BSA, 0.1% Tween-20/TBS for 1 h. The blots were then probed with the relevant primary antibodies in 5% BSA, 0.1% Tween-20/TBS at 4° C. overnight with gentle agitation. Membranes were washed with 0.1% Tween-20/TBS for 30 min and were incubated with secondary antibodies for 1 h at RT. Antigens were detected by ECL (Amersham). Imaging was performed using a ChemiDoc™ XRS+ System (Biorad).

MCF-7 cells [6] = experiment: Flow cytometry of CD44 and CD24 expression after OSM; assay type: cell-based, human; details: OSM 100 ng/ml, 48 h
Protocol: FIG. 8. Knock down of ferritin expression interferes with the OSM-mediated induction of CD44^highCD24^low/− in MCF-7 cells. MCF-7 were transfected with siRNA control or siRNA specifically targeting ferritin mRNA (FTH1) during 48 h and then the cells were incubated with OSM (100 ng/ml) for 48 h. a. Analysis of CD44 and CD24 expression by flow cytometry. Left panel, CSC indicates the percent of CD44^high/CD24^Low or negative (Low/−) population gated. Right panels, histogram representations of CD44 or CD24 expression (dark grey), or by the isotype control (light grey). b. Graphs representing the percent mean of CD44^high/CD24^Low/− population gated. c. Graphs representing the mean fluorescence intensity (IF) of CD24 and CD44, respectively. d. Quantification of the ALDH+ population in MCF-7 cells treated as indicated above, and measured by flow cytometry. Bars and error bars correspond to mean values and s.d. of two biological replicates, respectively. **P<0.01, ns, not significant, Student's t-test.
Small interfering RNA transfection. Suitable small interfering RNAs (siRNA) were designed with the Qiagen RNA interference designer tool for specific down-regulation of FTH1. The sequence used for FTH1 was 5′-[…]-3′ (S100300251) targeting the sequence following 5′-[…]-3′ and a negative control siRNA for FTH1 (5′-[…]-3′, (S103089212). Subconfluent cells were transfected with siRNA in Opti-MEM using the Oligofectamine™ reagent (Invitrogen) for 48 h. Then, cells were treated with OSM (100 ng/mL for 48 h) prior to protein or RNA extraction and flow cytometry analysis for markers as indicated.

CCCNC(=O)[C@H]1O[C@@H]1C(=O)N[C@H](C(=O)N1CCC[C@H]1C(=O)O)[C@@H](C)CC [CA-074]
ferritin degradation under AM5, cathepsin B inhibition (HMLER CD24^low cells [1]): degradation was prevented

CC(=O)O[C@@]12CO[C@@H]1C[C@H](O)[C@@]1(C)C(=O)[C@H](O)C3=C(C)[C@@H](OC(=O)[C@H](O)[C@@H](NC(=O)OC(C)(C)C)c4ccccc4)C[C@@](O)([C@@H](OC(=O)c4ccccc4)[C@H]21)C3(C)C [Doc, docetaxel, reference compound]
tumor growth [2]: less effective
tumor-seeding capacity of tumor cells treated in vivo [3]: lower response than treatment with either AM5 or AM5+Doc

CC(=O)N[C@@H](CS)C(=O)O [NAC, N-acetyl-L-cysteine]
effect of co-treatment on cell death induced by Sal and AM5 (HMLER CD24^low cells [4]): partly prevented Sal and AM5 from killing these cells

COC(=O)C[C@H](NC(=O)[C@H](C)NC(=O)[C@@H](NC(=O)OCc1ccccc1)C(C)C)C(=O)CF [Z-VAD-FMK] (Cbz-Val-Ala-Asp(OMe)-CH2F)
effect of inhibitor on cell death induced by Sal or AM5 (iCSCL-10A2 cells): no effect on the cell death profiles

CCOC(=O)c1ccc(NC2CCCCC2)c(N)c1 [ferrostatin-1]
effect of inhibitor on cell death induced by Sal or AM5 (iCSCL-10A2 cells): partially prevented

CN1C(=O)C(Cc2c[nH]c3ccccc23)NC1=S (centres unmarked) [necrostatin-1]
effect of inhibitor on cell death induced by Sal or AM5 (iCSCL-10A2 cells): no effect on the cell death profiles

TGF-31: cytokine that increases the CD44^high/CD24^Low/− population in HMLER cells
percent of CD44^high/CD24^Low/− population (HMLER cells): 21%

Transferrin: iron carrier protein taken up via transferrin receptor
effect on TGF-beta-mediated induction of CD44^highCD24^Low/− (HMLER cells; with TGF beta): potentiates the TGF-beta-mediated induction

B1: OSM: cytokine oncostatin M, implicated in inducing EMT (protein, UniProt P13725 26-221, looked up)
Oncostatin-M: AAIGSCSKEYRVLLGQLQKQTDLMQDTSRLLDPYIRIQGLDVPKLREHCRERPGAFPSEETLRGLGRRGFLQTLNATLGCVLHRLADLEQRLPKAQDLERSGLNIEDLEKLQMARPNILGLRNNIYCMAQLLDNSDTAEPTKAGRGASQPPTPTPASDAFQRKLEGCRFLHGYHRFMHSVGRVFSKWGESPNRSRR
ferritin protein level (MCF-7 cells [5]): increase in ferritin protein level
EMT marker protein levels (MCF-7 cells [5]; 72 h): increase of two EMT markers Fibronectin and Snail, and the decrease of E-cad protein levels
% of CD24^high population (MCF-7 cells [6]): remains unchanged
% of CD44^high population (MCF-7 cells [6]): 76%
% of CD44^highCD24^Low/− CSC population (MCF-7 cells [6]): 4.84%
